pIC50: −log10 of the molar value.
Test system: SW 982 tumor spheroid viability
Experiment: Anticancer human tumor SW 982 cell line growth inhibition;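 also: spheroids exposed to compound for 7 days before readout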
Conditions: spheroids with HUVEC and MSC; for pIC50: curve of first compound; for viability, T/C: stronger effect = lower value
Outline: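 Complex tumor spheroids combined malignant cells with endothelial cells and mesenchymal stem cells. DNA-damaging drugs and DNA repair inhibitors were tested alone and in combination, at half-log dilutions down from clinical Cmax (top 10 microM if Cmax unknown), 0.25% DMSO final.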

Question: How did the pIC50 (second compound 30 pM) turn out when `CC1COCCN1c1cc(-c2ccnn2C)c2ccnc(-c3ccn[nH]3)c2n1` (stereo not given) + COc1cc2c(cc1O)CCNC21CSC2c3c(OC(C)=O)c(C)c4c(c3C(COC1=O)N1C(O)C3Cc5cc(C)c(OC)c(O)c5C(C21)N3C)OCO4 was run?
Answer: > 7.50

Question: And the pIC50 (second compound 94.9 pM)?
Answer: > 7.50

Question: And the pIC50 (second compound 0.0003 µM)?
Answer: > 7.50

Question: And the pIC50 (second compound 0.000949 µM)?
Answer: > 7.50

Question: What about the pIC50 (second compound 0.003 µM) of the same compound?
Answer: > 7.50

Question: And the viability, T/C (second compound 30 pM, first compound 0.0316 µM)?
Answer: 30.3%

Question: And the viability, T/C (second compound 30 pM, first compound 0.1 µM)?
Answer: 21.2%

Question: And the viability, T/C (second compound 30 pM, first compound 0.316 µM)?
Answer: 16.3%

Question: What about the viability, T/C (second compound 30 pM, first compound 1 µM) of the same compound?
Answer: 14.8%

Question: What about the viability, T/C (second compound 30 pM, first compound 3.16 µM) of the same compound?
Answer: 16.5%

Question: What about the viability, T/C (second compound 30 pM, first compound 10 µM) of the same compound?
Answer: 19.5%

Question: What about the viability, T/C (second compound 94.9 pM, first compound 0.0316 µM) of the same compound?
Answer: 28%

Question: What about the viability, T/C (second compound 94.9 pM, first compound 0.1 µM) of the same compound?
Answer: 19.8%

Question: What about the viability, T/C (second compound 94.9 pM, first compound 0.316 µM) of the same compound?
Answer: 14.6%

Question: And the viability, T/C (second compound 94.9 pM, first compound 1 µM)?
Answer: 12.7%

Question: And the viability, T/C (second compound 94.9 pM, first compound 3.16 µM)?
Answer: 16.6%

Question: And the viability, T/C (second compound 94.9 pM, first compound 10 µM)?
Answer: 18.9%

Question: And the viability, T/C (second compound 0.0003 µM, first compound 0.0316 µM)?
Answer: 18.7%

Question: And the viability, T/C (second compound 0.0003 µM, first compound 0.1 µM)?
Answer: 16.3%

Question: What about the viability, T/C (second compound 0.0003 µM, first compound 0.316 µM) of the same compound?
Answer: 12.6%

Question: And the viability, T/C (second compound 0.0003 µM, first compound 1 µM)?
Answer: 10.9%

Question: And the viability, T/C (second compound 0.0003 µM, first compound 3.16 µM)?
Answer: 14.7%

Question: And the viability, T/C (second compound 0.0003 µM, first compound 10 µM)?
Answer: 14.6%

Question: What about the viability, T/C (second compound 0.000949 µM, first compound 0.0316 µM) of the same compound?
Answer: 13.8%

Question: What about the viability, T/C (second compound 0.000949 µM, first compound 0.1 µM) of the same compound?
Answer: 10.5%

Question: And the viability, T/C (second compound 0.000949 µM, first compound 0.316 µM)?
Answer: 6.7%

Question: And the viability, T/C (second compound 0.000949 µM, first compound 1 µM)?
Answer: 4.79%

Question: And the viability, T/C (second compound 0.000949 µM, first compound 3.16 µM)?
Answer: 3.55%

Question: And the viability, T/C (second compound 0.000949 µM, first compound 10 µM)?
Answer: 1.4%

Question: And the viability, T/C (second compound 0.003 µM, first compound 0.0316 µM)?
Answer: 1.23%

Question: What about the viability, T/C (second compound 0.003 µM, first compound 0.1 µM) of the same compound?
Answer: 1.25%

Question: What about the viability, T/C (second compound 0.003 µM, first compound 0.316 µM) of the same compound?
Answer: 0.44%

Question: What about the viability, T/C (second compound 0.003 µM, first compound 1 µM) of the same compound?
Answer: 0.7%

Question: And the viability, T/C (second compound 0.003 µM, first compound 3.16 µM)?
Answer: 0.39%

Question: And the viability, T/C (second compound 0.003 µM, first compound 10 µM)?
Answer: 0.98%

Question: What does the source list for `CC1COCCN1c1cc(-c2ccnn2C)c2ccnc(-c3ccn[nH]3)c2n1` (stereo not given) + Cn1nnc2c(C(N)=O)ncn2c1=O?
Answer: pIC50 (second compound 1 µM): > 7.50; pIC50 (second compound 3.16 µM): > 7.50; pIC50 (second compound 10 µM): > 7.50; pIC50 (second compound 31.6 µM): > 7.50; pIC50 (second compound 100 µM): > 7.50; viability, T/C (second compound 1 µM, first compound 0.0316 µM): 32.4%; viability, T/C (second compound 1 µM, first compound 0.1 µM): 20.4%; viability, T/C (second compound 1 µM, first compound 0.316 µM): 17.3%; viability, T/C (second compound 1 µM, first compound 1 µM): 15.4%; viability, T/C (second compound 1 µM, first compound 3.16 µM): 19.2%; viability, T/C (second compound 1 µM, first compound 10 µM): 23%; viability, T/C (second compound 3.16 µM, first compound 0.0316 µM): 26.9%; viability, T/C (second compound 3.16 µM, first compound 0.1 µM): 17%; viability, T/C (second compound 3.16 µM, first compound 0.316 µM): 15.8%; viability, T/C (second compound 3.16 µM, first compound 1 µM): 17%; viability, T/C (second compound 3.16 µM, first compound 3.16 µM): 19.7%; viability, T/C (second compound 3.16 µM, first compound 10 µM): 22.5%; viability, T/C (second compound 10 µM, first compound 0.0316 µM): 21.1%; viability, T/C (second compound 10 µM, first compound 0.1 µM): 16.6%; viability, T/C (second compound 10 µM, first compound 0.316 µM): 13%; viability, T/C (second compound 10 µM, first compound 1 µM): 13.3%; viability, T/C (second compound 10 µM, first compound 3.16 µM): 22.9%; viability, T/C (second compound 10 µM, first compound 10 µM): 20.3%; viability, T/C (second compound 31.6 µM, first compound 0.0316 µM): 20.6%; viability, T/C (second compound 31.6 µM, first compound 0.1 µM): 15.8%; viability, T/C (second compound 31.6 µM, first compound 0.316 µM): 13.1%; viability, T/C (second compound 31.6 µM, first compound 1 µM): 11.8%; viability, T/C (second compound 31.6 µM, first compound 3.16 µM): 12.5%; viability, T/C (second compound 31.6 µM, first compound 10 µM): 18.2%; viability, T/C (second compound 100 µM, first compound 0.0316 µM): 15%; viability, T/C (second compound 100 µM, first compound 0.1 µM): 12.8%; viability, T/C (second compound 100 µM, first compound 0.316 µM): 10.3%; viability, T/C (second compound 100 µM, first compound 1 µM): 9.31%; viability, T/C (second compound 100 µM, first compound 3.16 µM): 11.1%; viability, T/C (second compound 100 µM, first compound 10 µM): 14.6%
